This note sets out measurements from PubChem BioAssay (NCI).

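1) Cells in 96-well plates. 2) Compound, 48 h, 5 concentrations. 3) Linear interpolation between surrounding doses. 4) Unreached endpoint = highest concentration. Abbreviation: GI50, concentration required for 50% inhibition of growth. TGI is the concentration that stops growth completely.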 Where a SMILES comes first, the peptide text is derived from it. [ ]: non-standard residue; d: D form. The star is where a group is joined. ξ: configuration not given here. ξF = NC(Cc1ccccc1)C(=O)O; Cbz = O=C(OCc1ccccc1)*; Aib = CC(C)(N)C(=O)O

What all share (assay): NCI-60 cell line screen, 48 h
The test system of experiment [1] is NCI-H23 lung.
The test system of experiment [2] is SF-295 CNS.
Experiment [3] relates to OVCAR-3 ovarian.
Experiment [4] relates to NCI-H460 lung.
The test system of experiment [5] is TK-10 renal.
In experiment [6] the test system is HOP-92 NSCLC.
The test system of experiment [7] is UACC-257 melanoma.
The test system of experiment [8] is MALME-3M melanoma.
For experiment [9], the system named is CCRF-CEM leukemia.
Experiment [10] deals with COLO 205 colon.
For experiment [11], the system named is OVCAR-4 ovarian.

For `COc1ccc(NC(C)=O)cc1N1C(=O)/C(=C\c2ccccc2)SC1c1cc(OC)c(OC)c(OC)c1` (stereo unspecified), the TGI is greater than 100 µM in [1]; greater than 100 µM in [2]; greater than 100 µM in experiment [3]; 44.5 µM in experiment [4]; greater than 100 µM in experiment [5]; greater than 100 µM in [6]. Besides, the TGI was greater than 100 µM in experiment [7], 56.2 µM in experiment [8], greater than 100 µM in [9] and greater than 100 µM in experiment [10].

With `CC[C@@]1(O)C(=O)OCc2c1cc1n(c2=O)Cc2cc3ccccc3nc2-1`, the TGI in [1] amounted to 0.0928 µM; in experiment [2], 0.0698 µM; in experiment [3], 0.726 µM; in [4], 0.158 µM; in experiment [5], 51.2 µM; in [6] it was 0.131 µM. In addition, the TGI in [11] was determined as 2.21 µM; in experiment [7] it was 0.592 µM; in [8], 2.11 µM; in experiment [9], 0.0159 µM; in experiment [10], 5.18 µM. Also, the GI50 in experiment [3] was 0.214 µM.

Regarding `C=C(C)[C@@H]1CCC2=C[C@H](C/C(C)=C\C3=CC(C)=C(O3)[C@H]1O)OC2=O`, the TGI in [2], in experiment [3], in experiment [4], in experiment [5], in experiment [6] and in experiment [11] was greater than 100 µM throughout. In addition, the TGI in experiment [7], in [8], in experiment [9] and in experiment [10] was greater than 100 µM throughout.

Turning to `CCOC(=O)CNC(=O)C(Cc1ccccc1)NC(=O)C(C)(C)NC(=O)OCc1ccccc1` (stereo unspecified) (Cbz-[Aib]-[ξF]-Gly-OEt), the TGI is greater than 100 µM in experiment [2]; 78.2 µM in experiment [3]; greater than 100 µM in experiment [5]; greater than 100 µM in [6]; greater than 100 µM in [11]; greater than 100 µM in [7]. Further, the TGI is 36.2 µM in experiment [8], greater than 100 µM in [9] and greater than 100 µM in experiment [10].

In the case of `OCC(O)CNc1ncnc2ccccc12` (stereo unspecified), the TGI in experiment [1], in experiment [2], in [3], in experiment [4], in [5] and in experiment [6] was greater than 100 µM throughout. The TGI in experiment [11], in [7], in experiment [8], in [9] and in experiment [10] was greater than 100 µM each time.

On to `COc1ccccc1CC(C)N` (stereo unspecified), for which the TGI in experiment [1], in experiment [2], in [3], in experiment [4], in [5] and in [6] was greater than 100 µM each time. The TGI in experiment [11], in [7], in experiment [8], in experiment [9] and in experiment [10] was greater than 100 µM each time.

For `Clc1cc(Cl)c2cc3cccc[n+]3cc2c1Cl`, the TGI in [1] was 30.4 µM; in [2], 39.8 µM; in experiment [3] it was 26.8 µM; in experiment [4] it was 32.2 µM; in [5] it was 40.2 µM; in [6], 21.7 µM. For the same molecule, the TGI is 30.2 µM in experiment [11]; 28.9 µM in experiment [7]; 53.7 µM in experiment [8]; 37.2 µM in experiment [9]; 28.1 µM in experiment [10].

In the case of `CC(=O)Nc1cccc(N2C(=O)/C(=C\c3cccc(Oc4ccccc4)c3)S(=O)(=O)C2c2ccccc2)c1` (stereo unspecified), the TGI in [1], in [2], in experiment [3], in [4], in experiment [5] and in [6] was greater than 100 µM in each case. Besides, the TGI in experiment [11], in experiment [7], in [8], in experiment [9] and in experiment [10] was greater than 100 µM throughout.

For the molecule `Nc1ccc(O)c2c1C(=O)c1c(N)ccc(O)c1C2=O`, the TGI in [1], in experiment [2], in experiment [3], in experiment [4], in experiment [5] and in [6] was greater than 100 µM in each case. Also, the TGI in experiment [11], in experiment [7], in [8], in experiment [9] and in experiment [10] was greater than 100 µM each time.

Take `CCCCCCCCCCCCCC1=C(O)C(=O)C(CC2=C(O)C(=O)C(CCCCCCCCCCCCC)=C(O)C2=O)=C(O)C1=O`: the TGI in experiment [1], in experiment [2], in experiment [3], in experiment [5], in experiment [6] and in experiment [7] was greater than 100 µM in each case. Moreover, the TGI in experiment [8], in experiment [9] and in experiment [10] was greater than 100 µM throughout.

Consider `OC[C@H]1NC[C@@H](O)[C@@H](O)[C@H]1O`, for which the TGI in experiment [1], in experiment [2], in experiment [3], in experiment [4], in experiment [5] and in [6] was greater than 100 µM in each case. Moreover, the TGI in experiment [11], in experiment [7], in [8], in experiment [9] and in experiment [10] was greater than 100 µM each time.

Consider `CON(C)C(=O)[C@H]1C[C@@]1(C)CO`, for which the TGI in experiment [1], in [2], in experiment [3], in [4], in experiment [5] and in experiment [6] was greater than 100 µM each time. Besides, the TGI in experiment [11], in [7], in [8], in experiment [9] and in experiment [10] was greater than 100 µM throughout.

For the molecule `O=C(CSCC(=O)N/N=C/c1ccccc1)N/N=C\c1ccccc1`, the TGI in experiment [1], in [2], in experiment [3], in experiment [4], in experiment [5] and in experiment [6] was greater than 100 µM throughout. In addition, the TGI in [11], in [7], in experiment [8], in [9] and in experiment [10] was greater than 100 µM each time.

As to `C=C1C(=O)O[C@@H]2/C=C(\C)CC/C=C(\C)CC[C@@]12O`, the TGI was 4.32 µM in [1]; 25.2 µM in experiment [2]; 6.43 µM in experiment [3]; 31.5 µM in experiment [4]; 3.42 µM in experiment [5]; 3.63 µM in [6]. Also, the TGI in experiment [11] worked out at 4.86 µM; in experiment [7], 31.7 µM; in [8] it was 3.05 µM; in experiment [9], 0.607 µM; in experiment [10] it was 4.3 µM.

Turning to `CNC1Cc2c[nH]c3cccc(c23)C12C=C(C)C(=O)O2` (stereo unspecified), the TGI in experiment [1], in experiment [2], in [3], in [4], in experiment [5] and in experiment [6] was greater than 100 µM in each case. The TGI in experiment [11], in experiment [7], in experiment [8], in experiment [9] and in [10] was greater than 100 µM throughout.

With `CC(C)CCCC(C)[C@H]1CC[C@H]2n3c(nc4ccccc43)CCC[C@]12C` (stereo partly specified), the TGI in experiment [1] came to 34.4 µM; in experiment [2], 30.7 µM; in [3], 39 µM; in experiment [4], 32 µM; in experiment [5] it was 38.2 µM; in [6], 37.3 µM. The TGI came out at 31.5 µM in experiment [11]; 38.1 µM in experiment [7]; 46.1 µM in [8]; 49 µM in [9]; 23.7 µM in experiment [10].
